From patent US20090286839A1, “PHYTONUTRIENT COMPOSITIONS FROM MUSHROOMS OR FILAMENTOUS FUNGI AND METHODS OF USE” (priority 2006, published 2009)

Experiments:
[1] = test system: cortical neurons; assay: 2% Low Serum Assay, neuronal viability by MTT method; type: cell-based, chicken
Description: Lohman or Hisex Brown chicken one-day-old fertilized eggs were obtained and stored in a lab under appropriate conditions of 12° C. and 80% humidity. At embryonic day 0 eggs were transferred into a breeding incubatore and stored under permanent turning until embryonic day 9 at 37.8° C. and 55% humidity. For isolation of neurons 4 to 6 chicken embryos were used per experiment. Neurons were plated out and nerve cells maintained in a nutrition medium at 37° C., 97% humidity, and 5% CO2.
Test Item (T.I.) and Reference Item (R.I.) were administered at the start of the experiments for 8 days. Neurons were maintained in the same medium without change or addition of media until the end of the experiments. During the whole culture period of 8 days cells stay in an incubator at 37° C., 97% humidity, and 5% CO2.
From T.I.1, L-Ergothioneine a 128 mM solution was prepared in medium and directly added to the cells at the start of the experiments for a total of 8 days. […] The pellet was discarded and only from the supernatant 1.25 μl up to 160 μl/ml medium was administered. R.I.2. the neurotrophic standard NTS is a ready to use injection solution and was applied in concentrations from 1.25 μl up ro 160 μl/ml medium. The stock-solution for R.I.3, Trolox, was made in a concentration of 2 mM in PBS and the appropriate concentrations added to the cells at day 1.
To the isolated nerve cell T.I.1 was added in a dose range of 0.5, 1, 2, 4, 8, 16, 32, 64 mM. The supernatant of R.I.1 and the ready to use injection solution of R.I.2 were applied in the concentration 1.25, 2.5, 5, 10, 20, 40, 80, 160 μl/ml medium. R.I.3 was tested in the concentrations of 1, 2, 4, 8, 16, 31.25, 62.5, 125 μM. Experiments were performed at two different days, whereby on each day two identical microplates were prepared with two to four wells per T.I. or R.I. (n=8). In this 2% cell stress assay substances were administered at start of the experiment (day 1 in vitro) for the whole experimental period that means for eight days in vitro.
Neuronal viability of cultures was determined with the MTT-assay using a plate-reader (570 nm) as described in SOP MET009. The MTT-assay is a sensitive assay measuring the mitochondrial dehydrogenase activity in viable cells only. It is performed according to the method described by Mosmann, J. Immunol. Meth., 1983, 55-63. This assay is based on the reduction of yellow MTT (3-(4,5-dimethylthiazol-2-yl)-2,5,diphenyl tetrazolium bromide), to dark blue formazan crystals by mitochondrial dehydrogenases (succinate dehydrogenase). Since this reaction is catalyzed in living cells only the assay can be used for the quantification of cell viability.
For the determination of cell viability MTT solution was added to each well in a final concentration of 0.5 mg/ml. After 2 hours the MTT containing medium was aspired. Cells were lysed with 3% SDS, formazan crystals dissolved in isopropanol/HCI. To estimate optical density a plate reader (Anthos HT II) was used at wavelength 570 nm. Neuronal viability is expressed as optical densities (ODs).

[2] = Hydrophilic ORACFL assay (ORAChydro); type: biochemical; details: pure ERG
Description: The lipophilic ORACFL assay (ORAClipo) was based on a previous reported method. Hydrophilic ORACFL assay (ORAChydro) was based on a previous reported method. All data was expressed as micromoles of Trolox equivalents (TE) per gram of dry weight (μmol TE/g dw). The freeze-dried forms of the mushrooms were used for testing and the data was reported as dry weight. When reporting amount per serving, the data was converted to a fresh weight basis according to the dry weight of the fresh mushroom samples. For each analysis, triplicate extractions were performed from one crop and used for analysis. ORACtotal was determined by calculating the sum of ORAClipo and ORAChydro results.

[3] = Super-oxide radical averting capacity (SORAC) assay; type: biochemical; details: pure ERG
Description: SORAC assays were based on the previously described method by Zhao and coworkers. Simply, hydroethidine was used as a probe in measuring O2^− scavenging capacity. […] Addition of SOD inhibits the hydroethidine oxidation. All data was expressed as superoxide equivalents per gram of dry weight (kunitSOD eq/g dw). The freeze-dried forms of the mushrooms were used for testing and the data was reported as dry weight. When reporting amount per serving, the data was converted to a fresh weight basis according to the dry weight of the fresh mushroom samples. For each analysis, triplicate extractions from one crop were performed and used for analysis.
Another biological relevant free radical is O2^− which is less reactive than HO., however O2^− does react very quickly with certain radicals, such as nitric oxide. The SORAC assay is a newly developed assay. Hydroethidine (nonfluorescent) is used as the probe, which is oxidized (fluoresces) in the presence of O2^− that is generated from a xanthine and xanthine oxidase mixture. If antioxidants present in the sample are able to scavenge O2^−, a delay in fluorescence will occur due to the protection of the probe offered by the antioxidant. Generally, compounds that can scavenge O2^− will provide high SORAC values. […]

[4] = Peroxynitrite radical averting capacity (NORAC) assay; type: biochemical; details: pure ERG
Description: The NORAC assay was modified on a previously reported method. All data was expressed as micromoles of Trolox equivalents (TE) equivalents per gram of dry weight (μmol of TE/g dw). The freeze-dried forms of the mushrooms were used for testing and then the data was converted to a FW basis according to the dry weight of the fresh mushroom samples, which were obtained from one crop. For each analysis, triplicate extractions were performed and used for analysis.
Under physiological conditions, the formation of ONOO^− can easily result due to the cellular production and interaction of nitric oxide and superoxide radicals. Damage to protein, especially aromatic compounds can result from ONOO^−. A limited number of papers have been published regarding the antioxidant capacity against ONOO^−. The NORAC assay is a relatively new assay. SIN-1 is used in the NORAC assay, which when heated decomposes to produce ONOO^−. DHR-123 (non-fluorescent) is used as the probe, which becomes oxidized by the presence of ONOO^− to become rhodamine 123 (fluoresces). If antioxidants present in the sample are able to scavenge ONOO^−, a delay in fluorescence will occur due to the protection of the probe offered by the antioxidant. Generally, compounds that can scavenge ONOO^− will provide high NORAC values. […]

[5] = cited from earlier work
[6] = Hydroxyl radical averting capacity (HORAC) assay; type: biochemical; details: pure ERG
Description: The HORAC assay was based on a previously reported method, however caffeic acid (CA) was used as the standard due to CA providing a wider linear range as compared to gallic acid. All data was expressed as micromoles of caffeic acid equivalents (CAE) equivalents per gram of dry weight (μmol CAE/g dw). The freeze-dried forms of the mushrooms were used for testing and the data was reported as dry weight. When reporting amount per serving, the data was converted to a fresh weight basis according to the dry weight of the fresh mushroom samples. For each analysis, triplicate extractions were performed from one crop and used for analysis.
HO. radicals are highly reactive and can be generated via the Fenton reaction. Due to the fact that HO. radicals are short lived with a high rate constant, it is unlikely that antioxidants present at biological concentrations will be able to scavenge the HO radical. However antioxidants, which are able to act as metal chelators, may be able to prevent the formation of the HO. radical, thus acting as a preventative antioxidant. The HORAC assays measures the ability of the antioxidant present to chelate Co(II) prior to the Fenton reaction cocurring. HORAC values ranged between 3.0-13.6 μmole CAE/g dw. There was a significant difference found within the different A. bisporus mushrooms. […]

[7] = Gallus gallus, Cortical neurone, 192 h, read-out: viability, mean in % (control is 100%)
[8] = Lohman or Hisex Brown, chicken, 8 days
[9] = 0.5 mM, addition at 1DIV, 8 days, n=8
[10] = 1 mM, addition at 1DIV, 8 days, n=8
[11] = 2 mM, addition at 1DIV, 8 days, n=8
[12] = 4 mM, addition at 1DIV, 8 days, n=8
[13] = 8 mM, addition at 1DIV, 8 days, n=8
[14] = 16 mM, addition at 1DIV, 8 days, n=8
[15] = 32 mM, addition at 1DIV, 8 days, n=8
[16] = 64 mM, addition at 1DIV, 8 days, n=8

SMILES: Cc1c(C)c2c(c(C)c1O)CCC(C)(C(=O)O)O2 (stereo not drawn) [Trolox, 6-Hydroxy-2,5,7,8-tetramethylchroman2-carboxylic acid]
- viability, mean optical density ([1]; 1 μM, addition at 1DIV, 8 days, n=8): 0.052 OD
- viability, mean optical density ([1]; 2 μM, addition at 1DIV, 8 days, n=8): 0.056 OD
- viability, mean optical density ([1]; 4 μM, addition at 1DIV, 8 days, n=8): 0.058 OD
- viability, mean optical density ([1]; 8 μM, addition at 1DIV, 8 days, n=8): 0.076 OD
- viability, mean optical density ([1]; 16 μM, addition at 1DIV, 8 days, n=8): 0.180 OD
- viability, mean optical density ([1]; 31.25 μM, addition at 1DIV, 8 days, n=8): 0.297 OD
- viability, mean optical density ([1]; 62.5 μM, addition at 1DIV, 8 days, n=8): 0.338 OD
- viability, mean optical density ([1]; 125 μM, addition at 1DIV, 8 days, n=8): 0.262 OD
- viability at 1 µM [1, 7]: 97.8%
- viability at 2 µM [1, 7]: 102%
- viability at 4 µM [1, 7]: 107%
- viability at 8 µM [1, 7]: 140%
- viability at 16 µM [1, 7]: 331%
- viability at 31.25 µM [1, 7]: 546%
- viability at 62.5 µM [1, 7]: 620%
- viability at 125 µM [1, 7]: 482%
- maximum neuronal viability (% of untreated control) [1, 8]: 620%

SMILES: C[N+](C)(C)[C@@H](Cc1c[nH]c(=S)[nH]1)C(=O)[O-] [Ergo, L-ergothioneine]
- viability, mean in % (control is 100%) [1, 9]: 98.13%
- viability, mean optical density [1, 9]: 0.053 OD
- viability, mean in % (control is 100%) [1, 10]: 104.42%
- viability, mean optical density [1, 10]: 0.057 OD
- viability, mean in % (control is 100%) [1, 11]: 105.10%
- viability, mean optical density [1, 11]: 0.057 OD
- viability, mean in % (control is 100%) [1, 12]: 110.39%
- viability, mean optical density [1, 12]: 0.060 OD
- viability, mean in % (control is 100%) [1, 13]: 119.84%
- viability, mean optical density [1, 13]: 0.065 OD
- viability, mean in % (control is 100%) [1, 14]: 189.48%
- viability, mean optical density [1, 14]: 0.103 OD
- viability, mean in % (control is 100%) [1, 15]: 262.66%
- viability, mean optical density [1, 15]: 0.153 OD
- viability, mean in % (control is 100%) [1, 16]: 407.45%
- viability, mean optical density [1, 16]: 0.221 OD
- neuroprotective concentration range ([1]; 2% low serum, 8 days, MTT): ≥ 4 mM
- maximum neuronal viability (% of untreated control) ([1]; 2% low serum, 8 days, MTT, best concentration tested): 407%
- ORAChydro value of ERG [2]: 6,440 μmole TE/g
- SORAC value of ERG [3]: non-detectable
- NORAC value of ERG [4]: 407 μmole TE/g
- solubility in nonpolar solvents ([5]; nonpolar solvents): insoluble
- water soluble up to ([5]; water, room temperature): up to 0.9 M
- HORAC value of ERG [6]: 231 μmole CAE/g

SMILES: COc1c(O)cc2oc3cc(O)c(CC=C(C)C)c(O)c3c(=O)c2c1CC=C(C)C [Mangostin]
- viability, mean optical density ([1]; 1.25 μl/ml, addition at 1DIV, 8 days, n=8): 0.051 OD
- viability, mean optical density ([1]; 2.5 μl/ml, addition at 1DIV, 8 days, n=8): 0.052 OD
- viability, mean optical density ([1]; 5 μl/ml, addition at 1DIV, 8 days, n=8): 0.053 OD
- viability, mean optical density ([1]; 10 μl/ml, addition at 1DIV, 8 days, n=8): 0.076 OD
- viability, mean optical density ([1]; 20 μl/ml, addition at 1DIV, 8 days, n=8): 0.064 OD
- viability, mean optical density ([1]; 40 μl/ml, addition at 1DIV, 8 days, n=8): 0.057 OD
- viability, mean optical density ([1]; 80 μl/ml, addition at 1DIV, 8 days, n=8): 0.059 OD
- viability, mean optical density ([1]; 160 μl/ml, addition at 1DIV, 8 days, n=8): 0.065 OD
- maximum neuronal viability (% of untreated control) [1, 8]: 155%
- viability, mean in % (control is 100%) ([1]; Lohman or Hisex Brown, chicken, 8 days, 1.25 μl/ml): 93.86%
- viability, mean in % (control is 100%) ([1]; Lohman or Hisex Brown, chicken, 8 days, 2.5 μl/ml): 95.97%
- viability, mean in % (control is 100%) ([1]; Lohman or Hisex Brown, chicken, 8 days, 5 μl/ml): 98.32%
- viability, mean in % (control is 100%) ([1]; Lohman or Hisex Brown, chicken, 8 days, 10 μl/ml): 142.18%
- viability, mean in % (control is 100%) ([1]; Lohman or Hisex Brown, chicken, 8 days, 20 μl/ml): 155.61%
- viability, mean in % (control is 100%) ([1]; Lohman or Hisex Brown, chicken, 8 days, 80 μl/ml): 109.66%
- viability, mean in % (control is 100%) ([1]; Lohman or Hisex Brown, chicken, 8 days, 160 μl/ml): 120.33%
